From US7553642B2, “Branched neutral amino acid transporters acting as single molecule” (Human Cell Systems, Inc., priority 2003, dated 2009)

What was measured:
Type in all cases: cell-based
[1] = target: T1, human LAT3 (Homo sapiens, UniProt O75387); test: Uptake of radiolabeled amino acids by Xenopus oocytes injected with human LAT3 cRNA
T1 construct: An expression plasmid vector pSPORT1 containing cDNA of human LAT3 was cleaved by a restriction enzyme NotI, and cRNA; expressed in transfected cells; host or cells: Xenopus laevis oocytes injected with cRNA
T1 sequence (O75387 1-559): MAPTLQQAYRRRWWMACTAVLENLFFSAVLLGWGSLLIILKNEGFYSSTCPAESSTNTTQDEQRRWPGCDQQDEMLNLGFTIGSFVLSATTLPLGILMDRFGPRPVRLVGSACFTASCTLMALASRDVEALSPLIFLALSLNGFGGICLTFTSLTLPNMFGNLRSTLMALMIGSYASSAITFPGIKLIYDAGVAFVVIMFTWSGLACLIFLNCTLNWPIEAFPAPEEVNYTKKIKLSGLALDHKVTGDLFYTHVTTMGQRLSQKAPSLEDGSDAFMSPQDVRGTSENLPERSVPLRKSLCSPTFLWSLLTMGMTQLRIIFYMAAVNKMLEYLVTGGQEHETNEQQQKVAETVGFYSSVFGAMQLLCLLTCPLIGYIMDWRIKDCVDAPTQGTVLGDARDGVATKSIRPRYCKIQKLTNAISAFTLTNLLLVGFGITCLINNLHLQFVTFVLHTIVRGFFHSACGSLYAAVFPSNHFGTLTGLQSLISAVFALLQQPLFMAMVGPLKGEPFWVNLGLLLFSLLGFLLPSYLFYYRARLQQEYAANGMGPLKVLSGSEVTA
Description: The substrate uptake by the injected oocytes using leucine as a substrate was carried out according to the method described by Kanai et al. (Kanai and Hediger, Nature, Vol. 360, 467-471 (1992)), as follows. The oocytes was cultured for 30 minutes in the Na^+-free uptake solution (100 mM of choline chloride, 2 mM of potassium chloride, 1.8 mM of calcium chloride, 1 mM of magnesium chloride, 5 mM of HEPES, pH 7.4) using ^14C-leucine (100 μM) as a substrate, and uptake rate of the substrate was measured by counting radioactivity in the cell.
The oocytes was injected with 25 ng of human LAT3 gene cRNA to be expressed thereby, and cultured for 3 days.
The experiment of the leucine uptake was carried out as follows according to the above described method in Example 1 (1). That is, the oocytes injected with the cRNA of the human LAT3 gene or water as a control were cultured for 10 minutes in Na^+-free uptake solution containing ^14C-leucine (100 μM) (refer to Example 1 (1)), and measured uptake of radioactivity into the cells.
The leucine uptake was conducted at the leucin concentrations of 1, 3, 10, 30, 60, 100, 200, 400, 1000, 2000 and 3000 μM using the oocytes injected with cRNA of the human LAT3 gene according to the above-described method in Example 3 (1). […] In addition, it was clarified that the leucine transport mediated by LAT3 is composed of high affinity component and low affinity component (FIG. 6, inserted figure).
An uptake experiment of various amino acids and amino acid analogs was carried out using the oocytes injected with cRNA of the human LAT3 gene according to the above-described method in Example 3 (1), provided that various radiolabeled amino acids were utilized in place of the ^14C-leucine.

[2] = target: T2, mouse LAT4 (Mus musculus, UniProt Q8CGA3, K402E/P237S); test: Uptake of radiolabeled amino acids by Xenopus oocytes injected with mouse LAT4 cRNA
T2 construct: An expression plasmid vector pcDNA 3.1(+) containing cDNA of mouse LAT4 was cleaved by a restriction enzyme XbaI; expressed in transfected cells; host or cells: Xenopus laevis oocytes injected with cRNA (from pcDNA3.1(+), IMAGE clone 2235970)
T2 sequence (Q8CGA3 whole entry P237S/K402E): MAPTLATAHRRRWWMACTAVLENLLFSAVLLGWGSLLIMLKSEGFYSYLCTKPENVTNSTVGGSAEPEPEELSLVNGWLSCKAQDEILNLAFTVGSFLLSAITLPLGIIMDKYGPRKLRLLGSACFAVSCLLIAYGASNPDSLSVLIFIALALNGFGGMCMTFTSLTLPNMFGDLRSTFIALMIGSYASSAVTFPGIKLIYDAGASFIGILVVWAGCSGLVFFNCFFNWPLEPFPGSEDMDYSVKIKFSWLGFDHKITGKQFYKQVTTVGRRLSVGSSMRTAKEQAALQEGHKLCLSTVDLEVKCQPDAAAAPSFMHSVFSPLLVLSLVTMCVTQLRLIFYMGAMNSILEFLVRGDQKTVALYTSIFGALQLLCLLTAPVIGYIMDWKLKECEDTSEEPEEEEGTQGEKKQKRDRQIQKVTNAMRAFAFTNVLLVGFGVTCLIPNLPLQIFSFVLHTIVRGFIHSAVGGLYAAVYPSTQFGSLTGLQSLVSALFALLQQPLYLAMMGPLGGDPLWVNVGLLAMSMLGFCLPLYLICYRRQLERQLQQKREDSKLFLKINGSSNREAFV
Description: The oocytes was injected with 25 ng of cRNA of the mouse LAT4 gene to be expressed thereby, and cultured for 3 days.
An experiment of leucine uptake was carried out as follows according to the above-described method in Example 3 (1). That is, the oocytes injected with cRNA of the mouse LAT4 gene or water as a control were cultured for 10 minutes in the Na^+-free uptake solution containing […] (100 μM) (refer to Example 3 (1)), and measured the uptake of radioactivity into the cells.
The leucine uptake was conducted at the leucin concentrations of 0.01, 0.03, 0.1, 0.3, 1, 3 and 10 mM, using the oocytes injected with cRNA of the mouse LAT4 gene according to the above-described method in Example 3 (1). […] In addition, it was clarified that the leucine transport mediated by LAT4 is composed of a high affinity component and a low affinity component, just like the leucin uptake mediated by LAT3.
An uptake experiment of various amino acids and amino acid analogs was carried out using the oocytes injected with cRNA of the mouse LAT4 gene according to the above-described method in Example 3 (1). In this regard, in place of ^14C-leucine, various radiolabeled amino acids were utilized.

[3] = target: T1, human LAT3; test: 14C-leucine efflux from preloaded oocytes injected with human LAT3 cRNA; conditions: preloaded 100 nl of 400 μM 14C-leucine; absence of extracellular leucine; Na+-free; room temperature
Description: The oocytes injected with cRNA of the human LAT3 gene was injected with 100 nl of 400 μM ^14C-leucine (2 nCi). After washing the oocytes with the leucine-free and Na^+-free uptake solution which was previously cooled with ice, the oocytes were transferred to the Na^+-free uptake solution with or without leucine (1 mM) at room temperature (18 to 22° C.), then efflux of ^14C-leucine was measured. As a control, 100 nl of 400 μM ^14C-leucine (2 nCi) was injected into the oocytes injected with water instead of cRNA of the human LAT3 gene, and the extracellular efflux of ^14C-leucine was measured by the same procedures as described above.

[4] = target: T3, mouse LAT3 (Mus musculus, UniProt Q8BSM7); test: Leucine uptake by oocytes injected with mouse LAT3 cRNA; conditions: 14C-L-leucine, method of Example 3 (1)
T3 construct: expressed in transfected cells; host or cells: Xenopus laevis oocytes injected with cRNA (IMAGE clone 4910149)
T3 sequence (Q8BSM7 whole entry): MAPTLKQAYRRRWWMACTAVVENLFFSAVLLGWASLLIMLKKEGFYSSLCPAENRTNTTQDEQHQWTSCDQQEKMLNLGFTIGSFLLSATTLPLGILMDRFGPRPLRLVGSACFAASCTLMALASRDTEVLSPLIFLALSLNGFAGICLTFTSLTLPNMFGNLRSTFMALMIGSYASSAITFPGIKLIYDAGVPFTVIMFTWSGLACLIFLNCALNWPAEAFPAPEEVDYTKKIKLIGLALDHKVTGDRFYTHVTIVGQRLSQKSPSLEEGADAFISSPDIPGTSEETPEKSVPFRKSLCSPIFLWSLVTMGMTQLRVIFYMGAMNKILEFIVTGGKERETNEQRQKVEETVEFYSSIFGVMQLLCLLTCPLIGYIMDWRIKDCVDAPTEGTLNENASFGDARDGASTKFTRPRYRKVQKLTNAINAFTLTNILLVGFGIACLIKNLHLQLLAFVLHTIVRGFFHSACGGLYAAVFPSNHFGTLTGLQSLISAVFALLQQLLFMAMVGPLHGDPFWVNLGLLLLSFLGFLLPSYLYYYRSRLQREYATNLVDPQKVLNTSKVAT
Description: The cDNA of mouse LAT3 obtained by Example 2 was cleaved at NotI site, and cRNA was prepared using SP6 RNA polymerase. The cRNA of the mouse LAT3 gene was expressed in the oocytes and the ^14C-L-leucine uptake was measured.
The oocytes was injected with 25 ng of cRNA of the mouse LAT3 gene to be expressed thereby, and cultured for 3 days. An experiment of the leucine uptake by the oocytes injected with cRNA of the mouse LAT3 gene was carried out according to the method in Example 3 (1).

[5] = target: T4, human LAT4 (Homo sapiens, UniProt Q8N370); test: Leucine uptake by oocytes injected with human LAT4 cRNA; conditions: 14C-L-leucine, method of Example 3 (1)
T4 construct: expressed in transfected cells; host or cells: Xenopus laevis oocytes injected with cRNA (IMAGE clone 2783525)
T4 sequence (Q8N370 1-573 isoform Q8N370-3): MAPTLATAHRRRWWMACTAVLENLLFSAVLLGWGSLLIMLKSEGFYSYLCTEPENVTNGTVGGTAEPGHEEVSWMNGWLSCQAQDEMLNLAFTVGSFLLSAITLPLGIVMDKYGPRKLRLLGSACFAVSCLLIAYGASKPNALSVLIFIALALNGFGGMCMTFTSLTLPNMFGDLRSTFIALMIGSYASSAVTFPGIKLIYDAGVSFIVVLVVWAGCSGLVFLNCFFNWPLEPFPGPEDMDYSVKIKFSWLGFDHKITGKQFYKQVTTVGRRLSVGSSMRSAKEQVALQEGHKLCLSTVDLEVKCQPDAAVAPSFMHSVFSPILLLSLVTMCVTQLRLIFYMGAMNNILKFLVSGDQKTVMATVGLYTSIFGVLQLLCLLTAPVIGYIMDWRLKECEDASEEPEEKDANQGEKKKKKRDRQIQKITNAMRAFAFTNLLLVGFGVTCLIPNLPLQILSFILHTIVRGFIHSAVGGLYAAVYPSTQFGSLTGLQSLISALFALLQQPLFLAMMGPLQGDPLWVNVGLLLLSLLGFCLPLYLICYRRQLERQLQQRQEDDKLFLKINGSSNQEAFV
Description: The cDNA of human LAT4 gene obtained by Example 4 was cleaved at XhoI site, and the cRNA was prepared using T3 RNA polymerase. The cRNA of the human LAT4 gene was expressed in the oocytes and the ^14C-L-leucine uptake was measured.
The oocytes was injected with 25 ng of cRNA of the human LAT4 gene, and cultured for […]. Experiment of the leucine uptake by the oocytes injected with cRNA of the human LAT4 gene was carried out according to the method of Example 3 (1).

[6] = 14C-leucine 100 μM, Na+-free uptake solution, 10 minutes

uptake of radiolabeled substrate into oocytes expressing human LAT3 ([1]; 14C-labeled substrate in place of 14C-leucine, Na+-free uptake solution, 10 minutes): a large amount of uptake
leucine uptake in oocytes expressing LAT3 compared with water-injected [1, 6]: significant augmentation
concentration dependence of leucine uptake (human LAT3) ([1]; leucine 1 to 3000 μM): concentration-dependent and saturable
uptake of radiolabeled substrate into oocytes expressing mouse LAT4 ([2]; 14C-labeled substrate in place of 14C-leucine): a large amount of uptake
leucine uptake in oocytes expressing mouse LAT4 compared with water-injected [2, 6]: significant augmentation
concentration dependence of leucine uptake (mouse LAT4) ([2]; leucine 0.01 to 10 mM): concentration-dependent and saturable
efflux of 14C-leucine from oocytes expressing human LAT3 [3]: significant efflux
leucine uptake in oocytes expressing mouse LAT3 compared with water-injected [4]: significant augmentation
leucine uptake in oocytes expressing human LAT4 compared with water-injected [5]: significant augmentation
SMILES: CC(C)C[C@H](N)C(=O)O [L-leucine]
